Measurements from patent US20240398768A1, “METHODS OF TREATING SOLID TUMOR USING HETEROAROMATIC MACROCYCLIC ETHER COMPOUNDS” (Nuvalent, Inc., priority 2021, published 2024).
pIC50: −log10 of the molar value. Like-named read-outs stand apart in the source and are kept apart here.

What was measured:
[1] = Phase 1/2 clinical study: pharmacokinetics; format: in vivo, human; conditions: human, plasma, oral; for Vd/F: read-out: Vz/F; for Tmax: median; for concentration at 15 day: read-out: Cmin
Excerpt: (§1) Each cycle of treatment is 28 days.

[2] = Human free fraction in plasma; format: in vitro ADME; conditions: of the total plasma concentration
CYP3A4 [3] = molecular target: T1, CYP3A4 (Homo sapiens, UniProt P08684); assay: CYP inhibition; format: in vitro ADME; conditions: for pIC50: CYP3A4 inhibition
CYP2C19 = CYP2C19 (Homo sapiens, UniProt P33261); assay: CYP substrate assessment; format: in vitro ADME
[4] = Phase 1/2 clinical study: safety and tolerability; format: in vivo
Experimental: The Phase 1 portion of the study employ a BOIN design with 3+3 run-in to evaluate dose escalation. […] The safety profile is assessed based on physical examinations; ECOG PS; changes from baseline in laboratory parameters, ECGs, vital signs, and ophthalmic examination (baseline only and as clinically indicated); and the reporting of AEs. The DLT Observation Period is defined from first dose on day 1 of cycle 1 (C1D1) through to the end of the first cycle (28-day cycle period).
as §1

CYP2D6 = CYP2D6 (Homo sapiens, UniProt P10635); assay: CYP substrate assessment; format: in vitro ADME
CYP3A4 [5] = molecular target: T1, CYP3A4; assay: CYP substrate assessment; format: in vitro ADME
[6] = tested on: Lu01-0414 PDX (SDC4-ROS1); assay: PDX efficacy model LU-01-0414; format: in vivo, mice; conditions: ROS1 PDX models of FIG. 2A-2C
[7] = 75 mg, Cycle 1 Day 1, 75 mg QD, geometric mean
[8] = 75 mg, Cycle 1 Day 15, 75 mg QD, geometric mean
[9] = 100 mg, Cycle 1 Day 1, 100 mg QD, geometric mean
[10] = 100 mg, Cycle 1 Day 15, 100 mg QD, geometric mean
[11] = 125 mg, Cycle 1 Day 1, 125 mg QD, geometric mean
[12] = 125 mg, Cycle 1 Day 15, 125 mg QD, single value
[13] = Cycle 1 Day 15, 25 mg QD, geometric mean
[14] = Cycle 1 Day 15, 50 mg QD, geometric mean
[15] = Cycle 1 Day 15, 75 mg QD, geometric mean
[16] = Cycle 1 Day 15, 100 mg QD, geometric mean
[17] = Cycle 1 Day 15, 125 mg QD, geometric mean
[18] = twenty pts, 25-100 mg once daily

T1 sequence (P08684 whole entry): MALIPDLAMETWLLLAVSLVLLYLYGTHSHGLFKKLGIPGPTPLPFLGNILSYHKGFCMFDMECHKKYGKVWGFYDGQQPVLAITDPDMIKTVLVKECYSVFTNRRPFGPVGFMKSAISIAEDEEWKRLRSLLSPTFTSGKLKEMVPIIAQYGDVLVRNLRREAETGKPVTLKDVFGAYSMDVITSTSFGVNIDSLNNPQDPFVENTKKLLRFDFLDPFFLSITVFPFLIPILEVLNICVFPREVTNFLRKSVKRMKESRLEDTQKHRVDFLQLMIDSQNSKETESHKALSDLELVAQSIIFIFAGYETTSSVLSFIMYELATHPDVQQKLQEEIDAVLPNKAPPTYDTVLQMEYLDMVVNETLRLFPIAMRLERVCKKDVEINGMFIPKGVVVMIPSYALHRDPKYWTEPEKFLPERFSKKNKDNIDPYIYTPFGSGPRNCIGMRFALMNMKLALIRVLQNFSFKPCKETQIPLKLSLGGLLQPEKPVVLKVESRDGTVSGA
Chain of CYP2D6 (P10635 whole entry): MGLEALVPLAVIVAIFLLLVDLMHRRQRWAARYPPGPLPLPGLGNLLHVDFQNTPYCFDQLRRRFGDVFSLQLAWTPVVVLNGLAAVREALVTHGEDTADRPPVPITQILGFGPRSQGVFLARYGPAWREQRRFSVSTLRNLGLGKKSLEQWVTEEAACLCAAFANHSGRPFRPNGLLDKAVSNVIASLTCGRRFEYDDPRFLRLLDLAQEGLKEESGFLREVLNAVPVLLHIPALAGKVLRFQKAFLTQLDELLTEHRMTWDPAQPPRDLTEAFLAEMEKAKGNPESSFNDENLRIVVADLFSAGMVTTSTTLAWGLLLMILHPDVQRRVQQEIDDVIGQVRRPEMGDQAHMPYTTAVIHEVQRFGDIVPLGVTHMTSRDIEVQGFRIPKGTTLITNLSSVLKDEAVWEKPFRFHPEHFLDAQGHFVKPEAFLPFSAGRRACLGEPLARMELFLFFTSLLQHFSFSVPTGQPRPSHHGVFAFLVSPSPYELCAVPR
Chain of CYP2C19 (P33261 whole entry): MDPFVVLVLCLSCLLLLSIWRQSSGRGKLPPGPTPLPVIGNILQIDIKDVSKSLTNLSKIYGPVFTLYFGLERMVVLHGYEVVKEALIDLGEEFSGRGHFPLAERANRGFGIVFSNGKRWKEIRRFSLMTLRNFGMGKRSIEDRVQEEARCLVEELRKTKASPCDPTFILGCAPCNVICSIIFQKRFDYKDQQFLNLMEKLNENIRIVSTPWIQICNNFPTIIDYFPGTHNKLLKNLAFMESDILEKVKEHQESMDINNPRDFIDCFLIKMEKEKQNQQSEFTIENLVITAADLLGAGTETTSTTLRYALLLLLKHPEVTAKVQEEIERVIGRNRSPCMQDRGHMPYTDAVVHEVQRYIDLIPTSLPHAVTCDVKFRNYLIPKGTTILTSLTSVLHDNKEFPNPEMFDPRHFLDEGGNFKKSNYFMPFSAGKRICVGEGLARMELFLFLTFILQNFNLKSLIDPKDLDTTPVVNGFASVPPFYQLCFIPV

Molecule `CCn1ncc2c1-c1cnc(N)c(c1)O[C@H](C)c1cc(F)ccc1-c1nn(C)nc1C2` [Compound 1, (19R)-3-ethyl-16-fluoro-10,19-dimethyl-20-oxa-3,4,9,10,11,23-hexaazapentacyclo [19.3.1.0^2,^6.0^8,^12.0^13,^18]pentacosa-1 (24),2 (6),4,8,11,13,15,17,21 (25),22-decaen-22-amine] has a Vd/F ([1]; 50 mg, Cycle 1 Day 15, 50 mg QD, geometric mean) of 228 L, a Tmax ([1]; 50 mg, Cycle 1 Day 15, 50 mg QD) of 30 min and a half-life ([1]; 75 mg, Cycle 1 Day 1, 75 mg QD, arithmetic mean, read-out: t1/2 (converted)) of 984 min. For the same molecule, the AUC(0-inf) [1, 7] was 5930 ng·h/mL, the Cmax [1, 7] was 642 ng/mL and the Vd/F [1, 7] was 294 L. The Tmax ([1]; 75 mg, Cycle 1 Day 1, 75 mg QD) was 60 min, the half-life ([1]; 75 mg, Cycle 1 Day 15, 75 mg QD, arithmetic mean, read-out: t1/2 (converted)) was 1420 min and the AUC(0-inf) [1, 8] was 13500 ng·h/mL. The Cmax [1, 8] was 730 ng/mL, the Vd/F [1, 8] was 350 L and the Tmax ([1]; 75 mg, Cycle 1 Day 15, 75 mg QD) was 60 min. The half-life ([1]; 100 mg, Cycle 1 Day 1, 100 mg QD, arithmetic mean, read-out: t1/2 (converted)) was 1020 min, the AUC(0-inf) [1, 9] was 8690 ng·h/mL and the Cmax [1, 9] was 802 ng/mL. The Vd/F [1, 9] was 267 L, the Tmax ([1]; 100 mg, Cycle 1 Day 1, 100 mg QD) was 90 min and the AUC(0-inf) [1, 10] was 11000 ng·h/mL. The Cmax [1, 10] was 819 ng/mL, the Vd/F [1, 10] was 261 L and the Tmax ([1]; 100 mg, Cycle 1 Day 15, 100 mg QD) was 48 min. For the same molecule, the half-life ([1]; 100 mg, Cycle 1 Day 15, 100 mg QD, single value, read-out: t1/2 (converted)) was 984 min, the half-life ([1]; 125 mg, Cycle 1 Day 1, 125 mg QD, arithmetic mean, read-out: t1/2 (converted)) was 606 min and the AUC(0-inf) [1, 11] was 5980 ng·h/mL. For the same molecule, the Cmax [1, 11] was 943 ng/mL, the Vd/F [1, 11] was 304 L and the Tmax ([1]; 125 mg, Cycle 1 Day 1, 125 mg QD) was 30 min. The Cmax ([1]; 125 mg, Cycle 1 Day 15, 125 mg QD, geometric mean) was 734 ng/mL, the Tmax ([1]; 125 mg, Cycle 1 Day 15, 125 mg QD) was 30 min and the AUC(0-inf) [1, 12] was 7500 ng·h/mL. For the same molecule, the Vd/F [1, 12] was 470 L, the half-life ([1]; 125 mg, Cycle 1 Day 15, 125 mg QD, single value, read-out: t1/2 (converted)) was 864 min and the half-life ([1]; patients, data as of Sep. 13, 2022, read-out: half-life (converted)) was about 1200 min. For the same molecule, the AUC(0-t) ([1]; Cycle 1 Day 1, 25 mg QD, geometric mean) was 1360 ng·h/mL, the AUC(0-t) ([1]; Cycle 1 Day 1, 50 mg QD, geometric mean) was 3090 ng·h/mL and the AUC(0-t) ([1]; Cycle 1 Day 1, 75 mg QD, geometric mean) was 4000 ng·h/mL. It also gave an AUC(0-t) ([1]; Cycle 1 Day 1, 100 mg QD, geometric mean) of 5720 ng·h/mL, an AUC(0-t) ([1]; Cycle 1 Day 1, 125 mg QD, geometric mean) of 5020 ng·h/mL and an AUC [1, 13] of 2790 ng·h/mL. The concentration at 15 day [1, 13] was 67.2 ng/mL, the AUC [1, 14] was 4300 ng·h/mL and the concentration at 15 day [1, 14] was 83.4 ng/mL. It also gave an AUC [1, 15] of 7010 ng·h/mL, a concentration at 15 day [1, 15] of 187 ng/mL and an AUC [1, 16] of 6390 ng·h/mL. For the same molecule, the concentration at 15 day [1, 16] was 296 ng/mL, the AUC [1, 17] was 6600 ng·h/mL and the concentration at 15 day [1, 17] was 141 ng/mL. For the same molecule, the fraction unbound [2] was 0.206, the “inhibitor of CYP3A4 (testosterone) and CYP3A4 (midazolam)” value (CYP3A4 [3]) was “potential inhibitor” and the pIC50 (CYP3A4 [3]; midazolam) was 4.52. For the same molecule, the pIC50 (CYP3A4 [3]; testosterone) was 4.20, the “substrate for CYP2C19” value (CYP2C19) was “not considered a substrate” and the “treatment discontinuation due to toxicity” value ([4]; data as of Sep. 13, 2022) was “No treatment was discontinued due to toxicity”. The “AEs leading to dose reduction or discontinuation” value ([4]; data of Sep. 13, 2022) was “no AEs leading to dose reduction or discontinuation”, the DLTs ([4]; data of Sep. 13, 2022) was “no observed DLTs” and the “treatment-related SAEs” value ([4]; data of Sep. 13, 2022) was “no treatment-related SAEs”. The treatment-related dizziness ([4]; data of Sep. 13, 2022) was “no treatment-related dizziness”, the “tolerability (dizziness, orthostasis, paresthesia)” value ([4]; patient, 25 mg daily) was “well tolerated” and the neurological toxicities ([4]; patient, 50 mg daily) was “No neurological toxicities”. The neurological toxicities ([4]; patient, 25 then 75 mg daily) was “without neurological toxicities”, the “DLTs, dose reductions, drug-related treatment discontinuations” value [4, 18] was “No DLTs, dose reductions, or drug-related treatment discontinuations” and the “grade of treatment-related adverse events (TRAEs)” value [4, 18] was “grade 1”. The tolerability ([4]; up to 125 mg daily) was “well-tolerated”, the “substrate for CYP2D6” value (CYP2D6) was “not considered a substrate” and the “substrate of CYP3A4” value (CYP3A4 [5]) was “substrate”. For the same molecule, the body weight [6] was “No significant changes”.
